Source: patent US4195172A
In brackets after ≈: the same amount, converted by molar mass. Several values for one entry are separate records, joined by “and”; a condition that tells them apart may be missing. Equal values may be shown once. Where a name gives a salt, the structure may show the parent alone. Read-outs that look alike come from different tables or passages of the source.

What was measured:
[1] = IC50 of products of the examples and original antibiotics; format: cell-based; conditions: test organism not given
Candida albicans [2] = assay: Sensitivity of Candida albicans strains; format: cell-based
Text: (§1) There is a different sensitivity of different strains, for example Candida sp. to the N-methylglucamine salt of the N-glycosyl derivative of amphotericin B and Fungizone. Statistically, the amount of to Fungizone insensitive strains is much higher than the amount of to N-methylglucaminesalt of the said derivative insensitive strains. This especially concerns Candida albicans strains ZM, HM, and 1/75, Candida tropicalis strains JD and 20/75 and Candida krusei strains TS and 16/75, which are insensitive to Fungizone, but sensitive to N-methylglucamine salt of N-glycosyl derivative of amphotericin B.

Candida tropicalis = assay: Sensitivity of Candida tropicalis strains; format: cell-based
Text: as §1

Candida krusei = assay: Sensitivity of Candida krusei strains; format: cell-based
Text: as §1

Candida albicans [3] = assay: Experimental chemotherapy of Candida albicans infected mice; format: in vivo; conditions: Fungizone = 1
Text: The relative activity index representing the antibiotic activity in experimental chemotherapy of Candida albicans infected mice is much more advantageous for the N-methylglucamine salts of the N-glycosyl derivatives of polyene macrolides than for Fungizone/Table 4/.

[4] = Presence of antibiotic in serum after intravenous administration to rats; format: in vivo
Text: In intravenous administration to rats of N-methylglucamine salts of polyene macrolide N-glycosyl derivatives as compared to Fungizone the effect is much more advantageous for the N-methylglucamine salts because the presence of antibiotic in the serum after administration can be found longer that in the case of Fungizone/Table 5/.

[5] = Selective toxicity: potassium ion effluence from human erythrocytes versus Saccharomyces cerevisiae cells; format: cell-based; conditions: human erythrocytes vs saccharomyces cerevisiae; 50% effluence of potassium ions from human erythrocytes / from Saccharomyces cerevisiae cells; column head is drawing 1; read-out: Selective toxicity index EK50/DK50
Text: (§2) The data representing the selective toxicity are also more advantageous for the N-methylglucamine salt of N-glycosyl derivatives of polyene macrolides than for Fungizone. The indices of selective toxicity EK50 /DK50 and EH50 /DK50, illustrating the ratio of the minimal antibiotic concentration causing 50% effluence of the potassium ions from erythrocytes of human blood/EK50 /and the minimal concentration of antibiotic causing 50% hemolysis of erythrocytes/EH50 /to the minimal antibiotic concentration causing 50% effluence of the potassium ions from Saccharomyces cerevisiae cells/DK50 /are compared in Table 6.

[6] = Selective toxicity: hemolysis of human erythrocytes versus potassium ion effluence from Saccharomyces cerevisiae cells; format: cell-based; conditions: human erythrocytes vs saccharomyces cerevisiae; 50% hemolysis of human erythrocytes / 50% potassium effluence from Saccharomyces cerevisiae cells; column head is drawing 2; read-out: Selective toxicity index EH50/DK50
Text: as §2

[7] = Acute toxicity on intravenous administration in mice; conditions: mouse, in vivo, administered intravenously, read-out: DL50 (the source's name)
Geotrichum candidum = assay: Protection of mice in generalized geotrichosis; format: in vivo; conditions: for in vivo activity compared with Fungizone (in words), geotrichosis: generalized geotrichosis caused by Geotrichum candidum; for ED50: read-out: Average protective DP50 doses, generalized geotrichosis
Description: (§3) Average protective DP50 doses
(§4) 24 hours in a case of genera-

Aspergillus fumigatus = assay: Protection of mice in generalized aspergillosis; format: in vivo; conditions: for ED50: read-out: Average protective DP50 doses, generalized aspergillosis
Description: as §3, §4

[8] = system: Torula sp., Geotrichum candidum and Cryptococcus neoformans; assay: In vitro antifungal activity in comparison with Fungizone (in words); format: cell-based
Text: The in vitro activities of the N-methylglucamine salts of the N-glycosyl derivative of amphotericin B and Fungizone against some fungi are compared in Table 3.

[9] = Stability on storage at different temperatures within 6 months (retained biological activity); conditions: storage within 6 months, initial biological activity assumed as 100%, 262800 min
pH of 1% water solution = format: physicochemical
[10] = Biological activity in U/mg; format: cell-based
[11] = prior art; cited from earlier work
[12] = aspergillosis caused by Aspergillus fumigatus

Molecule C[C@@H]1[C@H](O)[C@@H](C)/C=C/C=C/C=C/C=C/C=C/C=C/C=C/[C@H](O[C@@H]2O[C@H](C)[C@@H](O)[C@H](NC3O[C@H](CO)[C@@H](O)[C@H](O)[C@H]3O)[C@@H]2O)C[C@@H]2O[C@](O)(C[C@@H](O)C[C@@H](O)[C@H](O)CC[C@@H](O)C[C@@H](O)CC(=O)O[C@H]1C)C[C@H](O)[C@H]2C(=O)O (stereo partly drawn) [Example I, sodium salt of the N-glycosyl derivative of the amphotericin B] has an IC50 [1] of 0.05 µg/mL.
C[C@@H]1[C@H](O)[C@@H](C)/C=C/C=C/C=C/C=C/C=C/C=C/C=C/[C@H](O[C@@H]2O[C@H](C)[C@@H](O)[C@H](NC3O[C@H](CO)[C@@H](O)[C@H](O)[C@H]3O)[C@@H]2O)C[C@@H]2O[C@](O)(C[C@@H](O)C[C@@H](O)[C@H](O)CC[C@@H](O)C[C@@H](O)CC(=O)O[C@H]1C)C[C@H](O)[C@H]2C(=O)O (stereo partly drawn) [II, tris salt of the N-glycosyl derivative of amphotericin B] showed an IC50 [1] of 0.6 µg/mL.
For C[C@@H]1[C@H](O)[C@@H](C)/C=C/C=C/C=C/C=C/C=C/C=C/C=C/[C@H](O[C@@H]2O[C@H](C)[C@@H](O)[C@H](NC3O[C@H](CO)[C@@H](O)[C@H](O)[C@H]3O)[C@@H]2O)C[C@@H]2O[C@](O)(C[C@@H](O)C[C@@H](O)[C@H](O)CC[C@@H](O)C[C@@H](O)CC(=O)O[C@H]1C)C[C@H](O)[C@H]2C(=O)O (stereo partly drawn) [N-methylglucamine salt of N-glycosyl derivative of amphotericin B], the sensitivity of strain (Candida albicans [2]; Candida albicans strain 1/75) was “sensitive”, the sensitivity of strain (Candida albicans [2]; Candida albicans strain HM) was “sensitive” and the sensitivity of strain (Candida albicans [2]; Candida albicans strain ZM) was “sensitive”. The sensitivity of strain (Candida tropicalis; Candida tropicalis strain 20/75) was “sensitive”, the sensitivity of strain (Candida tropicalis; Candida tropicalis strain JD) was “sensitive” and the sensitivity of strain (Candida krusei; Candida krusei strain 16/75) was “sensitive”. For the same molecule, the sensitivity of strain (Candida krusei; Candida krusei strain TS) was “sensitive”, the “Relative activity index in Candida albicans mice infection” value (Candida albicans [3]) was 2.35 and the “Time of the presence of an antibiotic in serum after 1/5 DL50 dose administration” value [4] was 15 min. It also gave a selectivity ratio [5] of 1.37, a selectivity ratio [6] of 24 and an LD50 [7] of 12.1 to 14.3 mg/kg. The “in vivo activity compared with Fungizone (in words), geotrichosis” value (Geotrichum candidum) was “corresponds to activity of Fungizone”, the ED50 (Geotrichum candidum; mice, geotrichosis caused by Geotrichum candidum) was 17.9 mg/kg and the “in vivo activity compared with Fungizone (in words), aspergillosis” value (Aspergillus fumigatus; [12]) was “corresponds to activity of Fungizone”. For the same molecule, the ED50 (Aspergillus fumigatus; mice, aspergillosis caused by Aspergillus fumigatus) was 22.7 mg/kg, the “antifungal activity in comparison with Fungizone (in words)” value [8] was “exhanced antifungal activity” and the remaining at 4380 h (physchem) was 81.2%. The “Biological activity in % at +37° C.” value ([9]; +37° C.) was 77.0%, the “Biological activity in % at +50° C.” value ([9]; +50° C.) was 79.8% and the “Biological activity in % at RT” value ([9]; RT) was 83.1%.
C[C@@H]1[C@H](O)[C@@H](C)/C=C/C=C/CC/C=C/C=C/C=C/C=C/[C@H](O[C@@H]2O[C@H](C)[C@@H](O)[C@H](NC3O[C@H](CO)[C@@H](O)[C@H](O)[C@H]3O)[C@@H]2O)C[C@@H]2O[C@](O)(C[C@@H](O)[C@H](O)CC[C@@H](O)C[C@@H](O)C[C@@H](O)CC(=O)O[C@H]1C)C[C@H](O)[C@H]2C(=O)O (stereo partly drawn) [N-methylglucamine salt of N-glycosyl derivative of nystatin] [listing 1 of 2 here] gave a selectivity ratio [5] of 17.3, a selectivity ratio [6] of 45 and an LD50 [7] of 19 mg/kg. It also gave an ED50 (Geotrichum candidum; Geotrichum candidum) of 4.49 mg/kg and an ED50 (Aspergillus fumigatus; Aspergillus fumigatus) of 6.28 mg/kg.
For C[C@@H]1[C@H](O)[C@@H](C)/C=C/C=C/CC/C=C/C=C/C=C/C=C/[C@H](O[C@@H]2O[C@H](C)[C@@H](O)[C@H](NC3O[C@H](CO)[C@@H](O)[C@H](O)[C@H]3O)[C@@H]2O)C[C@@H]2O[C@](O)(C[C@@H](O)[C@H](O)CC[C@@H](O)C[C@@H](O)C[C@@H](O)CC(=O)O[C@H]1C)C[C@H](O)[C@H]2C(=O)O (stereo partly drawn) [N-methylglucamine salt of N-glycosyl derivative of nystatin] [listing 2 of 2 here], the “pH 1% water solution” value (pH of 1% water solution) was 8.3, the Biological activity [10] was 1780 U/mg and the “Relative activity index in Candida albicans mice infection” value (Candida albicans [3]) was 2.41. For the same molecule, the “Time of the presence of an antibiotic in serum after 1/5 DL50 dose administration” value [4] was 30 min, the “in vivo activity compared with Fungizone (in words), geotrichosis” value (Geotrichum candidum) was “higher activity than Fungizone” and the “in vivo activity compared with Fungizone (in words), aspergillosis” value (Aspergillus fumigatus; [12]) was “higher activity than Fungizone”. The Solubility in water (Solubility in water) was greater than 15%.
For C[C@@H]1[C@H](O)[C@@H](C)/C=C/C=C/CC/C=C/C=C/C=C/C=C/[C@H](O[C@@H]2O[C@H](C)[C@@H](O)[C@H](NC3O[C@H](CO)[C@@H](O)[C@H](O)[C@H]3O)[C@@H]2O)C[C@@H]2O[C@](O)(C[C@@H](O)[C@H](O)CC[C@@H](O)C[C@@H](O)C[C@@H](O)CC(=O)O[C@H]1C)C[C@H](O)[C@H]2C(=O)O (stereo partly drawn) [Sodium salt of N-glycosyl derivative of nystatin] [reference compound], the “pH 1% water solution” value (pH of 1% water solution) was 9.7, the Biological activity [10] was 1296 U/mg and the Solubility in water (Solubility in water) was 4-10%.
For C[C@@H]1[C@H](O)[C@@H](C)/C=C/C=C/CC/C=C/C=C/C=C/C=C/[C@H](O[C@@H]2O[C@H](C)[C@@H](O)[C@H](NC3O[C@H](CO)[C@@H](O)[C@H](O)[C@H]3O)[C@@H]2O)C[C@@H]2O[C@](O)(C[C@@H](O)[C@H](O)CC[C@@H](O)C[C@@H](O)C[C@@H](O)CC(=O)O[C@H]1C)C[C@H](O)[C@H]2C(=O)O (stereo partly drawn) [VII, N-methylglucamine salt of the N-glycosyl derivative of nystatin], the IC50 ([1]; read-out: IC50) was 0.45 µg/mL.
For C[C@@H]1[C@H](O)[C@@H](C)/C=C/C=C/C=C/C=C/C=C/C=C/C=C/[C@H](O[C@@H]2O[C@H](C)[C@@H](O)[C@H](NC3O[C@H](CO)[C@@H](O)[C@H](O)[C@H]3O)[C@@H]2O)C[C@@H]2O[C@](O)(C[C@@H](O)C[C@@H](O)[C@H](O)CC[C@@H](O)C[C@@H](O)CC(=O)O[C@H]1C)C[C@H](O)[C@H]2C(=O)O (stereo partly drawn) [VIII, N-methylglucamine salt of N-glycosyl derivative of amphotericin B], the IC50 [1] was 0.1 µg/mL.
In the case of C[C@@H]1[C@H](O)[C@@H](C)/C=C/C=C/CC/C=C/C=C/C=C/C=C/[C@H](O[C@@H]2O[C@H](C)[C@@H](O)[C@H](NC3O[C@H](CO)[C@H](O)[C@H](O)[C@H]3O)[C@@H]2O)C[C@@H]2O[C@](O)(C[C@@H](O)[C@H](O)CC[C@@H](O)C[C@@H](O)C[C@@H](O)CC(=O)O[C@H]1C)C[C@H](O)[C@H]2C(=O)O (stereo partly drawn) [X, N-methylglucamine salt of N-glycosyl nystatin], the IC50 ([1]; read-out: IC50) is reported as 0.45 µg/mL.
Work on C[C@@H]1[C@H](O)[C@@H](C)/C=C/C=C/CC/C=C/C=C/C=C/C=C/[C@H](O[C@@H]2O[C@H](C)[C@@H](O)[C@H](NC3O[C@H](CO)[C@@H](O[C@H]4O[C@H](CO)[C@@H](O)[C@H](O)[C@H]4O)[C@H](O)[C@H]3O)[C@@H]2O)C[C@@H]2O[C@](O)(C[C@@H](O)[C@H](O)CC[C@@H](O)C[C@@H](O)C[C@@H](O)CC(=O)O[C@H]1C)C[C@H](O)[C@H]2C(=O)O (stereo partly drawn) [XI, N-methylglucamine salt of N-glycosyl nystatin] yielded an IC50 ([1]; read-out: IC50) of 0.45 µg/mL.
In the case of COC(=O)[C@H]1[C@@H]2C[C@@H](O[C@@H]3O[C@H](C)[C@@H](O)[C@H](N)[C@@H]3O)/C=C/C=C/C=C/C=C/C=C/C=C/C=C/[C@H](C)[C@@H](O)[C@@H](C)[C@H](C)OC(=O)C[C@H](O)C[C@H](O)CC[C@@H](O)[C@H](O)C[C@H](O)C[C@](O)(C[C@@H]1O)O2 [hydrochloride of methyl esters of amphotericin B], the “solubility in water (in words, from literature)” value [11] is listed as “forms in water merely micelle”.
Work on C[C@@H]1[C@H](O)[C@@H](C)/C=C/C=C/CC/C=C/C=C/C=C/C=C/[C@H](O[C@@H]2O[C@H](C)[C@@H](O)[C@H](N)[C@@H]2O)C[C@@H]2O[C@](O)(C[C@@H](O)[C@H](O)CC[C@@H](O)C[C@@H](O)C[C@@H](O)CC(=O)O[C@H]1C)C[C@H](O)[C@H]2C(=O)O [nystatin, reference compound] yielded an IC50 ([1]; read-out: IC50) of 0.18 µg/mL (≈ 0.194 µM).
For polifungin [reference compound], the IC50 [1] was 0.15 µg/mL and 0.16 µg/mL.
